The values that follow come from patent US12679878B2, “CRF2 receptor agonists and their use in therapy” (SANOFI, priority 2020, dated 2026).

Converted amounts (≈) assume the structure as drawn. Read-outs that look alike come from different tables or passages of the source. Starred links: 1 amine or outer side, 2 acyl side, 3 side chain; linkers in the order of their positions; H or OH if unused. Non-standard residues stand in square brackets, D forms with d. Residues, ends and D or L forms follow the SMILES beside them. Groups on a side chain read outwards from the residue. *: point of attachment. C20 diacid = O=C(O)CCCCCCCCCCCCCCCCCCC(=O)*; C18 diacid = O=C(O)CCCCCCCCCCCCCCCCC(=O)*; γGlu = O=C(O)[C@H](CCC(=O)[*:2])N[*:1]; AEEA = NCCOCCOCC(=O)O; Aib = CC(C)(N)C(=O)O A value given as a limit tells only on which side of the number the result lay.

The target of one data set is T1, human CRF2α receptor (Homo sapiens, UniProt Q13324).
T1 construct: expressed in transfected cells; host or cells: TeloHEAC
T1 sequence (Q13324 1-411): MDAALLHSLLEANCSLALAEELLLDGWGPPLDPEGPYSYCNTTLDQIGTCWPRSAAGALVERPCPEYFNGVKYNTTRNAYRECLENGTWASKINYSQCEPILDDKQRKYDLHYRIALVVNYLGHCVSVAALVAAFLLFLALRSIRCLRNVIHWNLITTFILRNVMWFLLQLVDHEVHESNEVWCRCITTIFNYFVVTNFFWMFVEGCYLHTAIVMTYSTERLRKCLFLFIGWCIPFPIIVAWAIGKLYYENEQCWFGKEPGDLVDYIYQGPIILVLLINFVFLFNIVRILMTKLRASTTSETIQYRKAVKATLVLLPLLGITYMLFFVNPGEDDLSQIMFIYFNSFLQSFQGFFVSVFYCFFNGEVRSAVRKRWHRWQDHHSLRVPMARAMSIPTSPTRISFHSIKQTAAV
The data set is described as follows: cAMP agonism at human CRF2 α receptor in TeloHEAC cells (Example 7). Type of data set: cell-based. Particulars: cAMP HTRF, TeloHEAC cells stably expressing human CRF2 α, 0% HSA; read-out: EC50 [nM], 0% HSA. Put shortly:
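Cryopreserved cells are thawed, washed and resuspended in IBMX-containing (2 mM) HEPES-buffered HBSS with or without 0.1% HSA. Compound incubation runs 30 min at room temperature with 2000 cells per well, then cAMP is measured by time-resolved FRET. Potency is expressed as EC50, efficacy relative to urocortin 2 at 1000 nM.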
(In general: TR-FRET usually uses a lanthanide donor and a delayed reading to cut background.)

For another data set, the system named is rat CRF2R α receptor. The data set is described as follows: cAMP agonism at rat CRF2R α receptor in A7R5 rat aortic smooth muscle cells (Example 8). The data set is classed as cell-based. The following applies: cAMP HTRF, A7R5 rat aortic smooth muscle cell line, 0% HSA. The essentials: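 Thawed cryopreserved A7R5 cells in HBSS/20 mM HEPES (0 or 0.1% HSA) with 2 mM IBMX, 2000 cells/well, were exposed to compound for 30 min at room temperature. cAMP was read by HTRF (665/620 nm ratio) after 1 h with lysis reagents. Activity was normalised to 1000 nM urocortin 2 as 100%, and EC50 was taken as the concentration giving 50% of maximal activation.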

In another data set the target is T2, CRF1R receptor (Homo sapiens, UniProt P34998).
T2 construct: host or cells: CHO-K1 clone 2
T2 sequence (P34998 24-415): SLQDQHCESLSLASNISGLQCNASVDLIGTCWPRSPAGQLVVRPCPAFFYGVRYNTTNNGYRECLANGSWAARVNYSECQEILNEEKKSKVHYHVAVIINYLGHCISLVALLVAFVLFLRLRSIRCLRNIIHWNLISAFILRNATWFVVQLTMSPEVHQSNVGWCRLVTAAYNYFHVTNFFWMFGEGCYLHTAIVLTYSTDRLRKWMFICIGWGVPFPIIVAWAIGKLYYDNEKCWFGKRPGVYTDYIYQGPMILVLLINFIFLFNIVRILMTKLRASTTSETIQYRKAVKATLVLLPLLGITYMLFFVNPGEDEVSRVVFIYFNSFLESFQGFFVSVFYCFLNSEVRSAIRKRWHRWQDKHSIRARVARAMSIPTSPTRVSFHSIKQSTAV
Briefly: cAMP activity at anti-target CRF1R, CRF1R-overexpression CHO cell line (Example 9). The data set is classed as cell-based. The following applies: for EC50: 0% HSA. Put shortly:
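cAMP accumulation was read by HTRF after 30 min at room temperature of compound treatment. Cells were cryopreserved CHO cells overexpressing CRF1R, plated at 2000/well in IBMX (2 mM)-containing HBSS/HEPES buffer with 0 or 0.1% HSA. Activity was normalized to 1000 nM UCN2 as 100%.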

Data set [1] in a line: Solubility in buffer systems by UPLC-UV (Example 13). The data set is classed as physicochemical. Put shortly:
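The supernatant was diluted 1:10 and quantified by UPLC-UV peak area against a reference standard curve, correcting for sequence-based extinction coefficients.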

Setting [2] is: CRF1R-overexpression CHO cell line.
Setting [3] is: CRF1R-overexpression CHO cell line, read-out: Emax (%).
Where [4] appears, read: pH 4.5, Solubility in Buffer B [mg/ml].
Where [5] appears, read: pH 7.4, Solubility in Buffer C [mg/ml].

Regarding `CC[C@H](C)[C@H](NC(=O)[C@H](CCC(N)=O)NC(=O)[C@H](CCC(=O)O)NC(=O)[C@H](CC(C)C)NC(=O)[C@H](CC(C)C)NC(=O)[C@H](CCC(N)=O)NC(=O)[C@H](CCCCN)NC(=O)[C@H](CC(N)=O)NC(=O)[C@H](CCCCN)NC(=O)[C@H](CCC(=O)O)NC(=O)[C@H](C)NC(=O)[C@H](CCC(N)=O)NC(=O)[C@H](CCC(N)=O)NC(=O)[C@H](CCCNC(=N)N)NC(=O)[C@H](CCC(=O)O)NC(=O)[C@H](CCCCN)NC(=O)[C@H](CCCCN)NC(=O)[C@H](CCC(N)=O)NC(=O)[C@H](CCCCN)NC(=O)[C@H](CCC(N)=O)NC(=O)[C@H](CCC(N)=O)NC(=O)[C@H](CCCCN)NC(=O)[C@H](Cc1ccccc1)NC(=O)[C@H](CC(C)C)NC(=O)[C@@H](NC(=O)[C@H](CCC(N)=O)NC(=O)[C@H](CCCCNC(=O)COCCOCCNC(=O)COCCOCCNC(=O)CC[C@H](NC(=O)CCCCCCCCCCCCCCCCCCC(=O)O)C(=O)O)NC(=O)[C@@H](NC(=O)[C@H](CCCCN)NC(=O)[C@@H](NC(=O)[C@@H]1CCCN1C(=O)[C@@H](NC(=O)[C@H](CC(=O)O)NC(=O)[C@H](CC(C)C)NC(=O)[C@H](CO)NC(=O)[C@H](CC(C)C)NC(=O)[C@@H](NC(=O)[C@@H](N)Cc1ccccc1)[C@@H](C)O)C(C)C)[C@@H](C)O)[C@@H](C)CC)[C@@H](C)CC)C(N)=O` [compound 58] (H-FTLSLDVPTKIK([AEEA-AEEA-γGlu-C20 diacid])QILFKQQKQKKERQQAEKNKQLLEQI-NH2; N-terminus assumed), the EC50 – broadly, the midpoint of the concentration-response curve – on human CRF2α receptor was 0.28 nM; with rat CRF2R α receptor, 0.72 nM. Besides, the Emax – broadly, the size of the effect at its maximum, as opposed to the concentration needed – at CRF1R receptor (CHO) was determined as 9.12%. Moreover, the solubility (in general, how much of the substance goes into solution per volume) at 1 h is over 9500 µg/mL in data set [1] (Buffer B: 100 mM acetate buffer, pH 4.5, 2.7 mg/ml m-cresol, target 10 mg/ml, read-out: Solubility in Buffer B) and over 9400 µg/mL in data set [1] (Buffer C: 100 mM phosphate buffer, pH 7.4, target 10 mg/ml, read-out: Solubility in Buffer C).
As for `CC[C@H](C)[C@H](NC(=O)[C@H](CCC(N)=O)NC(=O)[C@H](CCCCNC(=O)COCCOCCNC(=O)COCCOCCNC(=O)CC[C@H](NC(=O)CCCCCCCCCCCCCCCCCCC(=O)O)C(=O)O)NC(=O)[C@@H](NC(=O)[C@H](CCCCN)NC(=O)[C@@H](NC(=O)[C@@H]1CCCN1C(=O)[C@@H](NC(=O)[C@H](CC(=O)O)NC(=O)[C@H](CC(C)C)NC(=O)[C@H](CO)NC(=O)[C@H](CC(C)C)NC(=O)[C@@H](NC(=O)[C@@H](N)Cc1ccccc1)[C@@H](C)O)C(C)C)[C@@H](C)O)[C@@H](C)CC)C(=O)N[C@@H](CC(C)C)C(=O)N[C@@H](CC(C)C)C(=O)N[C@@H](CCCCN)C(=O)N[C@@H](CCC(N)=O)C(=O)N[C@@H](CCC(N)=O)C(=O)N[C@@H](CCCCN)C(=O)N[C@@H](CCC(N)=O)C(=O)N[C@@H](CCCCN)C(=O)N[C@@H](CCCCN)C(=O)N[C@@H](CCC(=O)O)C(=O)N[C@@H](CCCNC(=N)N)C(=O)N[C@@H](CCC(N)=O)C(=O)N[C@@H](CCC(N)=O)C(=O)N[C@@H](C)C(=O)N[C@@H](CCC(=O)O)C(=O)N[C@H](C(=O)N[C@@H](CC(N)=O)C(=O)N[C@@H](CCCCN)C(=O)N[C@@H](CCC(N)=O)C(=O)N[C@@H](CC(C)C)C(=O)N[C@@H](CC(C)C)C(=O)N[C@@H](CCC(=O)O)C(=O)N[C@@H](CCCNC(=N)N)C(=O)N[C@H](C(N)=O)C(C)C)[C@@H](C)O` [compound 61] (H-FTLSLDVPTKIK([AEEA-AEEA-γGlu-C20 diacid])QILLKQQKQKKERQQAETNKQLLERV-NH2), the EC50 at human CRF2α receptor was 0.38 nM; in the data set on rat CRF2R α receptor, 0.94 nM; at CRF1R receptor (setting [2]), over 1000 nM. The maximum response (Emax) at CRF1R receptor (setting [3]) stood at 3.31%. The solubility at 1 h in data set [1] (setting [4]) is over 10600 µg/mL; in data set [1] (setting [5]) it was over 9500 µg/mL.
For `CC[C@H](C)[C@H](N)C(=O)N[C@H](C(=O)N[C@@H](CC(C)C)C(=O)N[C@@H](CO)C(=O)N[C@@H](CC(C)C)C(=O)N[C@@H](CC(=O)O)C(=O)N[C@H](C(=O)N1CCC[C@H]1C(=O)N[C@H](C(=O)N[C@@H](CCCCN)C(=O)N[C@@H](CC(C)C)C(=O)N[C@@H](CCCCNC(=O)COCCOCCNC(=O)COCCOCCNC(=O)CC[C@H](NC(=O)CCCCCCCCCCCCCCCCC(=O)O)C(=O)O)C(=O)N[C@@H](CCC(N)=O)C(=O)N[C@H](C(=O)N[C@@H](CC(C)C)C(=O)N[C@@H](CC(C)C)C(=O)N[C@@H](CCC(=O)O)C(=O)N[C@@H](CCC(N)=O)C(=O)N[C@@H](CCC(=O)O)C(=O)N[C@@H](CCCCN)C(=O)N[C@@H](CCC(N)=O)C(=O)N[C@@H](CCCCN)C(=O)N[C@@H](CCCCN)C(=O)N[C@@H](CCC(N)=O)C(=O)N[C@@H](CCCNC(=N)N)C(=O)N[C@@H](CCC(=O)O)C(=O)N[C@@H](CCC(N)=O)C(=O)N[C@@H](C)C(=O)N[C@@H](CCC(=O)O)C(=O)N[C@H](C(=O)N[C@@H](CC(N)=O)C(=O)N[C@@H](CCCCN)C(=O)N[C@@H](CCC(N)=O)C(=O)N[C@H](C(=O)N[C@@H](CC(C)C)C(=O)N[C@@H](C)C(=O)N[C@@H](CCC(N)=O)C(=O)N[C@H](C(N)=O)C(C)C)[C@@H](C)CC)[C@@H](C)O)[C@@H](C)CC)[C@@H](C)CC)C(C)C)C(C)C` [compound 67] (H-IVLSLDVPIKLK([AEEA-AEEA-γGlu-C18 diacid])QILLEQEKQKKQREQAETNKQILAQV-NH2; N-terminus assumed), the EC50 at human CRF2α receptor is 0.57 nM; with rat CRF2R α receptor, 0.66 nM; on CRF1R receptor (setting [2]), over 1000 nM. Besides, the maximal response (Emax) on CRF1R receptor (setting [3]) came out at 9.18%. In addition, the values for the solubility at 1 h in data set [1] (setting [4]) and in data set [1] (setting [5]) were 6800 µg/mL (≈ 1320 µM) and 7500 µg/mL (≈ 1450 µM), respectively.
In the case of `CC[C@H](C)[C@H](N)C(=O)N[C@H](C(=O)N[C@@H](CC(C)C)C(=O)N[C@@H](CO)C(=O)N[C@@H](CC(C)C)C(=O)N[C@@H](CC(=O)O)C(=O)N[C@H](C(=O)N1CCC[C@H]1C(=O)N[C@H](C(=O)N[C@@H](CCCCN)C(=O)N[C@@H](CC(C)C)C(=O)N[C@@H](CCCCNC(=O)COCCOCCNC(=O)COCCOCCNC(=O)CC[C@H](NC(=O)CCCCCCCCCCCCCCCCC(=O)O)C(=O)O)C(=O)N[C@@H](CCC(N)=O)C(=O)N[C@H](C(=O)N[C@@H](CC(C)C)C(=O)N[C@@H](CC(C)C)C(=O)N[C@@H](CCC(=O)O)C(=O)N[C@@H](CCC(N)=O)C(=O)N[C@@H](CCC(=O)O)C(=O)N[C@@H](CCCCN)C(=O)N[C@@H](CCC(N)=O)C(=O)N[C@@H](CCCCN)C(=O)NC(C)(C)C(=O)N[C@@H](CCC(N)=O)C(=O)N[C@@H](CCCNC(=N)N)C(=O)N[C@@H](CCC(=O)O)C(=O)N[C@@H](CCC(N)=O)C(=O)N[C@@H](C)C(=O)N[C@@H](CCC(=O)O)C(=O)N[C@H](C(=O)N[C@@H](CC(N)=O)C(=O)N[C@@H](CCCCN)C(=O)N[C@@H](CCC(N)=O)C(=O)N[C@H](C(=O)N[C@@H](CC(C)C)C(=O)N[C@@H](C)C(=O)N[C@@H](CCC(N)=O)C(=O)N[C@H](C(N)=O)C(C)C)[C@@H](C)CC)[C@@H](C)O)[C@@H](C)CC)[C@@H](C)CC)C(C)C)C(C)C` [compound 79] (H-IVLSLDVPIKLK([AEEA-AEEA-γGlu-C18 diacid])QILLEQEKQK[Aib]QREQAETNKQILAQV-NH2; N-terminus assumed), the EC50 on human CRF2α receptor is 0.46 nM; with rat CRF2R α receptor it was 3.99 nM; at CRF1R receptor (setting [2]), over 1000 nM. Also, the Emax at CRF1R receptor (setting [3]) was found to be 8.74%. Moreover, the solubility at 1 h in data set [1] (setting [4]) was 18900 µg/mL (≈ 3700 µM); in data set [1] (setting [5]), over 8800 µg/mL.
